Entries after “also recorded” stand apart in the source; their conditions may differ.
Experiments:
[1] = molecular target: human ether-à-go-go-related gene (hERG) (Homo sapiens, UniProt Q12809); experiment: hERG fluorescence polarization assay; settings: at 30 μM
[2] = molecular target: T1, mammalian V-ATPase purified from pig kidneys (Sus scrofa, UniProt Q9TVC1); experiment: Biochemical V-ATPase (ATP hydrolysis) assay; settings: concentrations as low as 1 μM
T1 construct: the entire V-ATPase complex (800 kDa) was purified as described previously from porcine kidneys; from tissue; host or cells: porcine kidney
T1 sequence (Q9TVC1 whole entry): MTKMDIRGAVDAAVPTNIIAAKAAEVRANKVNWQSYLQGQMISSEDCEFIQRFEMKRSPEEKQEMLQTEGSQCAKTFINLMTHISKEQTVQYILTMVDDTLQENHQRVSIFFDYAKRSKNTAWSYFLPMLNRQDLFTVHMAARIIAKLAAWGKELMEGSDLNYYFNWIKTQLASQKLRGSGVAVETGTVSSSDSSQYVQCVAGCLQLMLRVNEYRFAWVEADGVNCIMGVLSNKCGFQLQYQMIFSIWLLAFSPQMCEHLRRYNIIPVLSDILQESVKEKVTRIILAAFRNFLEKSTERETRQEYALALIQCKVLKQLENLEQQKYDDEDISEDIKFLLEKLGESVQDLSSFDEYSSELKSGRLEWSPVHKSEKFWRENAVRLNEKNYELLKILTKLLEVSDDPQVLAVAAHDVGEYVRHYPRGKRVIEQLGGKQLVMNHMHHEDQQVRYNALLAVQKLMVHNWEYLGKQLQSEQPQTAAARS
T1 sequence (Q29048 whole entry partner): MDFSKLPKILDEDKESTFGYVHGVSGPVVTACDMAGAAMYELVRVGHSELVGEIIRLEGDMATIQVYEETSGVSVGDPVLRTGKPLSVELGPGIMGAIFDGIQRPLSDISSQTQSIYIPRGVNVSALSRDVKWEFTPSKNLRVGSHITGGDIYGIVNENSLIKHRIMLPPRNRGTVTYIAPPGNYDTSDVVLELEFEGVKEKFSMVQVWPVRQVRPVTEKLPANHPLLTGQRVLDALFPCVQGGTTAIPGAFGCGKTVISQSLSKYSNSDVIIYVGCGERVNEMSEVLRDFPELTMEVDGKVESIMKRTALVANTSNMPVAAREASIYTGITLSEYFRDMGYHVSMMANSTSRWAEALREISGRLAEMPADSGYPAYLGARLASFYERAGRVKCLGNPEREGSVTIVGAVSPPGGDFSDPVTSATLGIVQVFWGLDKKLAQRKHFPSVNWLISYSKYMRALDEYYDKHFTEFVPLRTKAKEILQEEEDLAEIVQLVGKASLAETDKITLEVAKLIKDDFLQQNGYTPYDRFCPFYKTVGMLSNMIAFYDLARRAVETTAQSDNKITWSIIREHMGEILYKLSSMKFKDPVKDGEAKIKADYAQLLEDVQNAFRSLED
Procedure: V-ATPase was purified as described previously from yeast[82] using the detergent dodecylmaltoside and porcine kidney[83] using the detergent glycol-diosgenin. ATPase assays with purified V-ATPase were performed as described previously. 249C (mammalian: 0.1, 1, 10, 100 μM and yeast: 5, 10 and 100 μM) or BafA1 (1 μM) were added to the reaction and compared with a negative control to which only DMSO was added. Enzyme-coupled ATPase biochemical activity assays were performed in a 96-well plate as described previously.

Yeast V-ATPase = molecular target: T2, Yeast V-ATPase (Saccharomyces cerevisiae, UniProt P25515+P41807); experiment: Biochemical V-ATPase (ATP hydrolysis) assay
T2 construct: V-ATPase was purified as described previously from yeast[82] using the detergent dodecylmaltoside; endogenous in cells; host or cells: yeast
T2 sequence (P25515 whole entry): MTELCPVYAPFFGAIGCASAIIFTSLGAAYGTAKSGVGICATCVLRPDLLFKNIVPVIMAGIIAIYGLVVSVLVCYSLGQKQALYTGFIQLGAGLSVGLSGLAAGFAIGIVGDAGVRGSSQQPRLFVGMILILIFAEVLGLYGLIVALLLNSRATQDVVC
T2 sequence (P41807 2-478): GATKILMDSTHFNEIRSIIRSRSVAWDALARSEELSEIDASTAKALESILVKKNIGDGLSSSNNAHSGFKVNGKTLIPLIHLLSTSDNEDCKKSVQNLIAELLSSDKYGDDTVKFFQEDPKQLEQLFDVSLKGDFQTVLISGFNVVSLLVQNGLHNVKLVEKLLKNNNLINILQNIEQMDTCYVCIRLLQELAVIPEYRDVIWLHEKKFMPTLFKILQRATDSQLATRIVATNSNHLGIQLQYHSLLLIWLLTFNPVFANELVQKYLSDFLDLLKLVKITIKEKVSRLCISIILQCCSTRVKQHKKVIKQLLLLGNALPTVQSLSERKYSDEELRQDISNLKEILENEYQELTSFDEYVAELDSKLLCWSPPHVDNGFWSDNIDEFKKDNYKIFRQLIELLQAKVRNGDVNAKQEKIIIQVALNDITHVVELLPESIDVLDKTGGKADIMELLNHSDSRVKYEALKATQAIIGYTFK
Procedure: V-ATPase was purified as described previously from yeast[82] using the detergent dodecylmaltoside and porcine kidney[83] using the detergent glycol-diosgenin. ATPase assays with purified V-ATPase were performed as described previously. 249C (mammalian: 0.1, 1, 10, 100 μM and yeast: 5, 10 and 100 μM) or BafA1 (1 μM) were added to the reaction and compared with a negative control to which only DMSO was added. Enzyme-coupled ATPase biochemical activity assays were performed in a 96-well plate as described previously. […]
appears to cause accumulation of high molecular weight entities. Representative of 3 independent experiments. […]
observed. Data shown are mean ± SD ( n = 3) Two-tailed student’s t-test (C) ATP-dependent fluorescence quenching in yeast (me an ± SD; n = 3 ) Two-t ailed student’s t-test (D) SDS PAGE over th e cou rse of recombinant human ATP6V1H protein purification. 1. Mark ers; 2. Total l ysate (GST-fusion […]); 3. Soluble lysate; 4.
GSTrap flow-through; 5. GSTrap elute; 6. Post thrombin cleavage (target 54 kDa, GST 25 kDa); 7. Subtractive GSTrap flow -through; 8. Markers; 9. Final sample, 1 µg protein load. Repres entative of 2 independent ex periments. (E) Structure of biotin- 249C. […]
interfere with V-ATPas e binding. ( F) Experimental schematic of Bio-la yer inferometr y (B L I) .
(1 picture or pasted object on this page, not shown here)

[3] = test system: V-ATPase-dependent proton transport in HEK293T cells; experiment: Proton pumping assay, FITC-Dextran-loaded lysosomes; type: cell-based, human; settings: 1 h treatment, listed as BafA1
Description: Figure 4. […] (A) Model of the reversible assembly of V-ATPase. Cytosolic V1 subunits are depicted in blue and membrane Vo subunits in purple. Upon V-ATPase assembly, ATP is hydrolyzed to ADP accompanied by proton (H^+) pumping and luminal acidification (decrease in pH) (Created with BioRender). […] The amount of subunit B2 present in the membrane fraction indicates the amount of assembled V-ATPase. A representative Western blot is presented. […] Cells were mechanically lysed, and a fraction containing FITC-Dextran-loaded lysosomes was isolated by sedimentation centrifugation. Fluorescence was measured over time to assess pH-dependent quenching following addition of 1 mM magnesium-ATP (predetermined). […] Representative of 5 individual experiments with n = 3 for each is presented (mean ± SD) (D) Mammalian V-ATPase activity measured in the absence and presence of 1 μM 249C and 1 μM BafA1. Data shown are mean ± SD; n = 3. […]
4 × 10^6 HEK 293T cells were plated in 10-cm plates. […] Sample fluorescence was excited at 490 nm, and emission fluorescence at 520 nm was measured continuously in BioTek plate reader (Synergy) using Gen5 software (version 3.05). After initial fluorescence stabilization, 1 mM ATP and 2 mM MgCl2 were added to initiate ATPase activity and proton pumping into the lysosomes, which causes quenching of FITC in the lysosomal lumen. […]

human primary cells = experiment: BioMAP Safety and Toxicology screening profile; type: cell-based
Procedure: The BioMAP Toxicity Screening Profile was performed as described previously.

hERG [4] = molecular target: T3, hERG (Homo sapiens, UniProt Q12809); experiment: hERG fluorescence polarization assay; settings: human
T3 sequence (Q12809 whole entry): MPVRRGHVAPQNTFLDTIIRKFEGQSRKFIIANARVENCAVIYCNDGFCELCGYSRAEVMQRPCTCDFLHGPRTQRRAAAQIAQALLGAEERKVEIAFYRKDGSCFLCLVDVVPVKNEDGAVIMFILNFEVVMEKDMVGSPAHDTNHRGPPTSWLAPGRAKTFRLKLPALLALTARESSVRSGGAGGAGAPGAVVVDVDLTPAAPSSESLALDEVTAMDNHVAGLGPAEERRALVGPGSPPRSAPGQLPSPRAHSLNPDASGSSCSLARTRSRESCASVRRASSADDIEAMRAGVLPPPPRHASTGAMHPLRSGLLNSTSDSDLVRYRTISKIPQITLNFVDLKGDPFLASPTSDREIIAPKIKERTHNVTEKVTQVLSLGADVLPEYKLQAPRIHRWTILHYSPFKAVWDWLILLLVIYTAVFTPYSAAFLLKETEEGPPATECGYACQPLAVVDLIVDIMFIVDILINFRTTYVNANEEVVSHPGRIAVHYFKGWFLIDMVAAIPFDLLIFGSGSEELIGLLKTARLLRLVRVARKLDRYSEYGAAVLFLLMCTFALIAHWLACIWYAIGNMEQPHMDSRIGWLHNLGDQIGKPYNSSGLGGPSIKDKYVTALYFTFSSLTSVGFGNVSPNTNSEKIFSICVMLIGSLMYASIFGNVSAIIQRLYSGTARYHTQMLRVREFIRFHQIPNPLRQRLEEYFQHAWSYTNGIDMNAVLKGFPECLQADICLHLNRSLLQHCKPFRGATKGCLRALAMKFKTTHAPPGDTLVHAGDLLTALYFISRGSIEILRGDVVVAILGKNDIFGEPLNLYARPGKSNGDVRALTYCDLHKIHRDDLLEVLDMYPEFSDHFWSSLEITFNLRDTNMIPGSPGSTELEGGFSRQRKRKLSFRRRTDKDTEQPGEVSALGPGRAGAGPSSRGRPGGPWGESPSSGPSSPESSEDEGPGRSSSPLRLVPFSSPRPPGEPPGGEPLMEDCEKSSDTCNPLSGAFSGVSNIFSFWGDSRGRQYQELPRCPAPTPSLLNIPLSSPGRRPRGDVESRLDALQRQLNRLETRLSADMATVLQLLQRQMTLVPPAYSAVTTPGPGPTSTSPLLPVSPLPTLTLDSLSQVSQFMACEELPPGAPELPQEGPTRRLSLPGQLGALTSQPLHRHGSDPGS

hERG [5] = molecular target: T3, hERG; experiment: in vitro

Chain of human ether-à-go-go-related gene (hERG) (Q12809 whole entry): as above

CN(CCCCCCNc1ccnc2cc(Cl)ccc12)CCCCCCNc1ccnc2cc(Cl)ccc12 [DC661]
Percent inhibition of hERG [1]: 100%

CO/C1=C\C(C)=C\[C@@H](C)[C@@H](O)[C@@H](C)C/C(C)=C/C=C/[C@H](OC)[C@@H]([C@@H](C)[C@@H](O)[C@H](C)[C@@]2(O)C[C@@H](O)[C@H](C)[C@@H](C(C)C)O2)OC1=O [Bafilomycin A1, reference compound]
ATP hydrolysis of intact mammalian V-ATPase [2]: blocked ATP hydrolysis
Yeast V-ATPase activity (Yeast V-ATPase): modest inhibition
V-ATPase-dependent proton transport (ATP-dependent fluorescence quenching) [3]: inhibited V-ATPase-dependent proton transport; also recorded: ATP-dependent fluorescence quenching was not observed
toxicity categories / adverse events in BioMAP safety profiling (human primary cells; over 100 biomarker readouts): 2
inhibition at 30 µM (hERG [4]): 35%

CCN(CCO)CCCC(C)Nc1ccnc2cc(Cl)ccc12 (stereo not shown) [HCQ, hydroxychloroquine]
BioMAP Screening Profile 3C:SRB (human primary cells; human, 1000 nM): 0
BioMAP Screening Profile 4H:SRB (human primary cells; human, 1000 nM): 0
BioMAP Screening Profile BE3C:SRB (human primary cells; human, 1000 nM): 0
BioMAP Screening Profile BF4T:SRB (human primary cells; human, 1000 nM): 0
BioMAP Screening Profile BT:PBMC Cytotoxicity (human primary cells; human, 1000 nM): 0
BioMAP Screening Profile CASM3C:SRB (human primary cells; human, 1000 nM): 0
BioMAP Screening Profile Cytotoxicity (human primary cells; human, 1000 nM): 0
BioMAP Screening Profile HDF3CGF:SRB (human primary cells; human, 1000 nM): 0
BioMAP Screening Profile KF3CT:SRB (human primary cells; human, 1000 nM): 0
BioMAP Screening Profile LPS:SRB (human primary cells; human, 1000 nM): 0
BioMAP Screening Profile MyoF:SRB (human primary cells; human, 1000 nM): 0
BioMAP Screening Profile SAg:PBMC Cytotoxicity (human primary cells; human, 1000 nM): 0
BioMAP Screening Profile SAg:SRB (human primary cells; human, 1000 nM): 0
BioMAP Screening Profile lMphg:SRB (human primary cells; human, 1000 nM): 0
BioMAP Screening Profile lMphg:SRB-Mphg (human primary cells; human, 1000 nM): 0
inhibition at 30 µM (hERG [5]): ~60%

Source: publication PMC9750872, “Ras-mutant cancers are sensitive to small molecule inhibition of V-type ATPases in mice” (Nature biotechnology, 2022)
